From PubChem BioAssay AID720512 (Broad Institute, 2013)
Calls of active or inactive are those of the source. The rule behind the calls is not given here.

The compounds below were run against Toxin B (TcdB) glycohydrolase, Clostridioides difficile 630 (assay: TcdB glycohydrolase inhibitors, dose response, biochemical, cherry-pick, plate reader (AID 720512)). Settings: recombinant TcdB glycohydrolase activity.

Row | SMILES | AC50
1 | COc1ccc(C2(CNC(=O)c3ccc(OC)c([N+](=O)[O-])c3)CCCCC2)cc1OC | > 39 µM (inactive)
2 | COc1cc2c(cc1O)CC[n+]1cc3c(OC)c(OC)ccc3cc1-2 | > 39 µM (inactive)
3 | Oc1ccc(CCc2ccccn2)cc1 | > 39 µM (inactive)
4 | O=C(O)COn1c(-c2ccc(Cl)cc2)nc2ccc(Cl)cc21 | > 39 µM (inactive)
5 | COC1=C/C(=C/c2c(N)n3nc(CC(=O)N4CCOCC4)sc3nc2=O)C=CC1=O | > 39 µM (inactive)
6 | O=C(c1ccccc1)c1coc2ccc(O)c(Cl)c12 | > 39 µM (inactive)
7 | CC(=O)N/C(=C\c1ccccc1)C(=O)Nc1ccc(O)cc1 | > 39 µM (inactive)
8 | CCCNC(=O)C[C@H]1CC[C@@H]2[C@@H](COc3ccc(NC(=O)c4ccc(Cl)cc4)cc3C(=O)N2C)O1 | > 39 µM (inactive)
9 | CCN(CC)CCCCN1c2ccccc2Sc2ccccc21 | > 39 µM (inactive)
10 | C[C@H](CO)N1C[C@H](C)[C@@H](CN(C)C(=O)Nc2ccc(C(F)(F)F)cc2)Oc2c(NS(=O)(=O)c3ccccc3)cccc2C1=O | > 39 µM (inactive)
11 | Oc1ccc(Nc2nc(Cl)nc(NCc3ccco3)n2)cc1 | 21.7 µM
12 | CC1(C)Cc2c(sc3ncn4c(=S)[nH]nc4c23)CO1 | > 39 µM (inactive)

Same assay, conditions: recombinant TcdB glycohydrolase activity, at 19.5 µM (top of the series)

Row | SMILES | activity change, negative = inhibition
13 | Cc1cc(NC(=O)CCCN2C(=O)c3cccc4cccc(c34)C2=O)no1 | inactive
14 | CCN(C(=O)CN1C(=O)NC2(CCC(C)CC2)C1=O)C1CCCCC1 (stereo not given) | inactive
15 | CN(C)CCCNC(=O)C[C@H]1CC[C@@H]2[C@@H](COc3ccc(NC(=O)c4ccc5c(c4)OCO5)cc3C(=O)N2C)O1 | inactive
16 | CCN1CCN(c2oc(-c3ccccc3C)nc2S(=O)(=O)c2ccccc2)CC1 | inactive
17 | COc1ccc(C(NC(C)=O)c2cc(Cl)c3cccnc3c2O)cc1 (stereo not given) | inactive
18 | Cc1cc(C)c(S(=O)(=O)N2CCCCC2C(=O)O)c(C)c1 (stereo not given) | inactive
19 | CCc1ccc(Nc2n[n+](-c3ccccc3)c(-c3ccc(OC)c(Br)c3)s2)cc1 | inactive
20 | O=C(NCc1cc(C(F)(F)F)cc(C(F)(F)F)c1)C1CC(c2c(Cl)cccc2Cl)=NO1 (stereo not given) | inactive
21 | Cc1cc(C)nc(SCC(=O)c2ccc(O)c(O)c2)n1 | inactive
22 | COc1ccccc1C(=O)Nc1cccc(Oc2c(F)c(F)c(F)c(F)c2F)c1 | inactive
23 | Cn1cc(S(=O)(=O)CC(=O)N2CCCc3ccccc32)c2ccccc21 | inactive
24 | CCOc1ccccc1/C=C/c1onc(C)c1S(=O)(=O)N1CCC(C(=O)N2CCCCCC2)CC1 | inactive
25 | CC12CCC(=O)N1C(C(=O)OCc1c(Cl)cccc1Cl)CS2 (stereo not given) | inactive
26 | COc1cc2oc3ccc(C#Cc4ccccn4)cc3c(=O)c2cc1OC | inactive
27 | COc1ccc(C2=NS(=O)(=O)N(C)C(C(=O)N(C)Cc3ccccc3)=C2)cc1OC | inactive
28 | O=C(Nc1ccncc1)c1ccc(-c2ccccc2)cc1 | inactive
29 | O=C(/C=C/c1ccccc1)Nc1cccnc1Cl | inactive

Row | SMILES | activity change, negative = inhibition
30 | CN1CC(=O)N/C1=N\C(=O)Nc1ccc(O)cc1 | inactive
31 | O=C(C[C@H]1CC[C@@H]2[C@H](COC[C@@H](O)CN2C(=O)c2ccccn2)O1)NC1CCC1 | inactive
32 | CN(C)CCNc1ccc(CO)c2sc3ccc(O)cc3c(=O)c12 | inactive
33 | Cc1cccc(CN2CCN(c3ncccn3)CC2)c1 | inactive
34 | CCC(=O)Nc1ccc2c(c1)OC[C@H](C)N(C(=O)NC(C)C)C[C@@H](C)[C@@H](OC)CN(C)C2=O | inactive
35 | Cc1ccc(/C=C/c2onc(C)c2S(=O)(=O)N2CCC(C(=O)N3CCN(C)CC3)CC2)cc1 | inactive
36 | Oc1ccc(Cc2ccc(Cl)cc2)c(O)c1 | inactive
37 | Oc1cc(O)cc(/C=C/c2ccc(O)c(O)c2)c1 | inactive
38 | CN(c1ccccc1)S(=O)(=O)c1cccc(C(=O)NCCc2ccc(O)c(O)c2)c1 | inactive
39 | CCCCn1c(N)c(N(CCOC)C(=O)CSc2nnc(-c3ccco3)n2CC)c(=O)[nH]c1=O | inactive
40 | O=C(O)c1ccccc1NC(=O)N1C[C@H]2C[C@@H](C1)c1cccc(=O)n1C2 | inactive
41 | CNC(=O)C[C@@H]1CC[C@H]2[C@H](COc3ccc(NS(=O)(=O)c4ccccc4C)cc3C(=O)N2C)O1 | inactive
42 | COC(=O)C1=C[C@@H](C(=O)OC)[C@@H]2C3=C(C(=O)[C@]2(C)NC(=O)c2ccccc2)[C@H](C)n2c(=O)n(C)c(=O)n2[C@@H]3C1 | inactive
43 | O=c1[nH]c(CN2CCOCC2)nc2cc(Cl)ccc12 | inactive
44 | O=C(C[C@H]1CC[C@H]2[C@@H](COC[C@@H](O)CN2Cc2ccccc2)O1)NCCc1ccccc1 | inactive
45 | COc1cc(/C=N/N2C(=O)C3C4C=CC(CC4)C3C2=O)ccc1O (stereo not given) | inactive
